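Cells were grown in 96-well plates and exposed to each compound for 48 hours at five concentrations; endpoints were interpolated linearly between bracketing concentrations, or set to the highest concentration if not reached. Abbreviation: GI50, concentration required for 50% inhibition of growth. TGI: total growth inhibition.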
Legend:
Assay in all cases: inhibition of tumour cell growth, NCI panel, 48 h
[1] = system: SF-295 CNS
[2] = system: U251 CNS
[3] = system: HCC-2998 colon
[4] = system: MDA-MB-231 breast
[5] = system: TK-10 renal
[6] = system: A549 NSCLC
[7] = system: SK-MEL-5 melanoma
[8] = system: K-562 leukemia
[9] = system: SNB-19 CNS
[10] = system: OVCAR-4 ovarian
[11] = system: A498 renal
[12] = system: HS 578T breast
[13] = system: CCRF-CEM leukemia
[14] = system: SR leukemia
[15] = system: SK-MEL-28 melanoma
[16] = system: MALME-3M melanoma
[17] = system: RXF 393 renal
[18] = system: SW-620 colon
[19] = system: EKVX NSCLC
[20] = system: UO-31 renal
[21] = system: T-47D breast
[22] = system: SK-OV-3 ovarian
[23] = system: HL-60(TB) leukemia
[24] = system: NCI/ADR-RES ovarian
[25] = system: M14 melanoma
[26] = system: NCI-H226 lung
[27] = system: OVCAR-3 ovarian
[28] = system: SF-268 CNS
[29] = system: HCT-15 colon
[30] = system: SK-MEL-2 melanoma
[31] = system: UACC-257 melanoma
[32] = system: HT29 colon
[33] = system: PC-3 prostate
[34] = system: HOP-62 NSCLC
[35] = system: SF-539 CNS
[36] = system: CAKI-1 renal
[37] = system: NCI-H23 lung
[38] = system: MDA-MB-435
[39] = system: LOX IMVI melanoma
[40] = system: MOLT-4 leukemia
[41] = system: BT-549 breast
[42] = system: HOP-92 NSCLC
[43] = system: RPMI-8226 leukemia
[44] = system: KM12 colon
[45] = system: MCF7 breast
[46] = system: DU-145 prostate
[47] = system: OVCAR-5 ovarian
[48] = system: UACC-62 melanoma
[49] = system: COLO 205 colon
[50] = system: OVCAR-8 ovarian
[51] = system: SN12C renal
[52] = system: HCT-116 colon
[53] = system: NCI-H460 lung
[54] = system: SNB-75 CNS
[55] = system: NCI-H522 lung
[56] = system: IGROV1 ovarian
[57] = system: ACHN renal
[58] = system: 786-0 renal

Cc1c(NC(=O)c2cc(C(N)=O)nc3cc(F)ccc23)c(C(F)(F)F)nn1Cc1ccc(C#N)cc1
GI50 [1]: 10.4 µM | TGI [1]: 54.9 µM | GI50 [2]: 1.67 µM | TGI [2]: 18.9 µM | GI50 [3]: 5.16 µM | TGI [3]: > 100 µM | GI50 [4]: 17.8 µM | TGI [4]: > 100 µM | GI50 [5]: 3.2 µM | TGI [5]: > 53.6 µM | GI50 [6]: 16.6 µM | TGI [6]: > 100 µM | GI50 [7]: 16.3 µM | TGI [7]: > 100 µM | GI50 [8]: 13.1 µM | TGI [8]: > 100 µM | GI50 [9]: 3.44 µM | TGI [9]: 30 µM | GI50 [10]: 4.91 µM | TGI [10]: > 76.9 µM | GI50 [11]: 15.1 µM | TGI [11]: 62.4 µM | GI50 [12]: 0.0592 µM | TGI [12]: 8.46 µM | GI50 [13]: 0.167 µM | TGI [13]: > 100 µM | GI50 [14]: 48.8 µM | TGI [14]: > 100 µM | GI50 [15]: 37.4 µM | TGI [15]: > 100 µM | GI50 [16]: 14.4 µM | TGI [16]: 74.5 µM | GI50 [17]: 5.56 µM | TGI [17]: 28.8 µM | GI50 [18]: 23.8 µM | TGI [18]: > 100 µM | GI50 [19]: 21.9 µM | TGI [19]: > 100 µM | GI50 [20]: 1.78 µM | TGI [20]: > 100 µM | GI50 [21]: 0.295 µM | TGI [21]: 31.3 µM | GI50 [22]: 2.76 µM | TGI [22]: 21.4 µM | GI50 [23]: 29.8 µM | TGI [23]: > 100 µM | GI50 [24]: 12.3 µM | TGI [24]: > 100 µM | GI50 [25]: 58.8 µM | TGI [25]: > 100 µM | GI50 [26]: 13.4 µM | TGI [26]: > 100 µM | GI50 [27]: 2.4 µM | TGI [27]: > 64.5 µM | GI50 [28]: 14.3 µM | TGI [28]: > 69.3 µM | GI50 [29]: 23 µM | TGI [29]: > 100 µM | GI50 [30]: 19.2 µM | TGI [30]: > 83.7 µM | GI50 [31]: > 95.3 µM | TGI [31]: > 100 µM | GI50 [32]: 0.219 µM | TGI [32]: 1.91 µM | GI50 [33]: 0.451 µM | TGI [33]: 24.4 µM | GI50 [34]: 13.6 µM | TGI [34]: > 87.3 µM | GI50 [35]: 14.3 µM | TGI [35]: 49.6 µM | GI50 [36]: 5.66 µM | TGI [36]: 35.1 µM | GI50 [37]: 22.2 µM | TGI [37]: > 100 µM | GI50 [38]: 56.9 µM | TGI [38]: > 100 µM | GI50 [39]: 8.13 µM | TGI [39]: > 100 µM | GI50 [40]: 1.7 µM | TGI [40]: > 100 µM | GI50 [41]: 1.78 µM | TGI [41]: 25.3 µM | GI50 [42]: 1.28 µM | TGI [42]: 18.1 µM | GI50 [43]: 0.0101 µM | TGI [43]: 3.67 µM | GI50 [44]: 0.512 µM | TGI [44]: > 37.9 µM | GI50 [45]: 0.276 µM | TGI [45]: 17.7 µM | GI50 [46]: 1.1 µM | TGI [46]: > 56.4 µM | GI50 [47]: 8.61 µM | TGI [47]: 97.5 µM | GI50 [48]: 6.35 µM | TGI [48]: > 100 µM | GI50 [49]: 0.504 µM | TGI [49]: 3.23 µM | GI50 [50]: 7.02 µM | TGI [50]: > 100 µM | GI50 [51]: 1.59 µM | TGI [51]: > 72 µM | GI50 [52]: 2.84 µM | TGI [52]: > 100 µM | GI50 [53]: 4.76 µM | TGI [53]: > 100 µM | GI50 [54]: 5.8 µM | TGI [54]: 45.2 µM | GI50 [55]: 18.3 µM | TGI [55]: > 64.4 µM | GI50 [56]: 2.02 µM | TGI [56]: > 80.7 µM | GI50 [57]: 12.4 µM | TGI [57]: 71.1 µM | GI50 [58]: 3.77 µM | TGI [58]: > 100 µM

Reference: PubChem BioAssay (NCI)
